Laboratory results: BindingDB's records for doi:10.1021/jm00096a016 (Kyowa Hakko Kogyo, 1992)

Legend:
[1] = biological target: Thromboxane-A synthase (Bos taurus); assay: Inhibitory effect against thromboxane A2 synthase binding to bovine platelets
[2] = Compound was tested for its inhibitory activity against TXA2 synthase obtained from bovine platelet microsomes
[3] = Binding affinity at TXA2 receptor by measuring its ability to displace [3H]U-46619 from guinea pig platelets
[4] = Inhibition of the thromboxane A2 receptor assayed by binding to guinea pig platelets using [3H]U-46619 as radioligand
[5] = Compound was tested for its binding affinity at Thromboxane A2 receptor by measuring its ability to displace [3H]U-46619 from guinea pig platelets

| SMILES | IC50 [1] | IC50 [2] | Ki [3] | Ki [4] | Ki [5] |
| --- | --- | --- | --- | --- | --- |
| O=C(O)c1ccc2c(c1)OCc1ccccc1C2SCCNS(=O)(=O)c1ccccc1 (stereo not given) | 370 nM | 370 nM | – | – | – |
| O=C(O)c1ccc2c(c1)C(SCCNS(=O)(=O)c1ccc3ccccc3c1)c1ccccc1CO2 (stereo not given) | – | – | 14 nM | 14 nM | – |
| O=C(NCCSC1c2ccccc2COc2ccc(C(=O)O)cc21)OCc1ccccc1 (stereo not given) | – | – | – | 7.7 nM | – |
| Cc1ccsc1C(=O)NCCSC1c2ccccc2COc2ccc(C(=O)O)cc21 (stereo not given) | – | – | 10 nM | 10 nM | – |
| O=C(O)c1ccc2c(c1)C(SCCNS(=O)(=O)c1ccc(C(F)(F)F)cc1)c1ccccc1CO2 (stereo not given) | – | – | – | 20 nM | 20 nM |
| O=C(O)c1ccc2c(c1)C(SCCNC(=O)c1ccccc1O)c1ccccc1CO2 (stereo not given) | – | – | – | 5.1 nM | 5.1 nM |
| O=C(O)c1ccc2c(c1)C(SCCNS(=O)(=O)c1ccccc1)c1ccccc1CC2 (stereo not given) | – | – | 30 nM | 30 nM | – |
| O=C(O)c1ccc2c(c1)C(SCCNS(=O)(=O)c1ccccc1)c1cc(Br)ccc1CO2 (stereo not given) | – | – | – | 6.8 nM | 6.8 nM |
| COc1ccc(S(=O)(=O)NCCSC2c3ccccc3COc3ccc(C(=O)O)cc32)cc1 (stereo not given) | – | – | – | – | 17 nM |
| O=C(O)c1ccc2c(c1)C(SCCNS(=O)(=O)c1ccccc1)c1ccccc1C=C2 (stereo not given) | – | – | – | 25 nM | 25 nM |
| O=C(O)c1cccc(C(SCCNS(=O)(=O)c2ccccc2)c2ccccc2)c1 (stereo not given) | – | – | 77 nM | 77 nM | – |
| O=C(O)c1ccc2c(c1)C(SCCNS(=O)(=O)c1cccs1)c1ccccc1CO2 (stereo not given) | – | – | – | 5.7 nM | 5.7 nM |
| O=C(NCCSC1c2ccccc2COc2ccc(C(=O)O)cc21)Nc1ccccc1 (stereo not given) | 830 nM | 830 nM | – | – | – |
| O=C(O)c1ccc2c(c1)C(SCCNC(=S)NCc1ccccc1)c1ccccc1CO2 (stereo not given) | – | – | 6.1 nM | 6.1 nM | – |
| O=C(O)c1ccc2c(c1)C(SCCNS(=O)(=O)c1ccccc1[N+](=O)[O-])c1ccccc1CO2 (stereo not given) | – | – | – | 15 nM | 15 nM |
| O=C(O)c1ccc2c(c1)C(SCCNS(=O)(=O)c1cccc([N+](=O)[O-])c1)c1ccccc1CO2 (stereo not given) | – | – | 14 nM | 14 nM | – |
| COc1cc(C(=O)NCCSC2c3ccccc3COc3ccc(C(=O)O)cc32)cc(OC)c1OC (stereo not given) | – | – | 92 nM | 92 nM | – |
| O=C(O)c1ccc2c(c1)C(SCCNC(=O)c1ccccc1)c1ccccc1CO2 (stereo not given) | – | – | – | 44 nM | – |
| Cc1ccc(S(=O)(=O)NCCSC2c3ccccc3COc3ccc(C(=O)O)cc32)cc1 (stereo not given) | – | – | – | 27 nM | 27 nM |
